Test results published in patent US10870647B2, “Imidazopyridine derivative, method for preparing same, and pharmaceutical composition containing same as active ingredient for preventing or treating cancer” (DAEGU-GYEONGBUK MEDICAL INNOVATION FOUNDATION, priority 2016, dated 2020).

Key:
Assay in all cases: Kinase selectivity, scanMAX Kinase assay panel (DiscoverX), % control at 1 uM
Assay type in all cases: binding
[1] = target: T1, scanMAX Kinase assay panel (Homo sapiens, UniProt P10721, L576P); settings: KIT (L576P); 1 uM; read-out: Percent Control (%)
T1 construct: purchased DiscoverX
Outline: (§1)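 1 uM cpd (DMSO) per kinase; % ctrl = [cpd − pos ctrl]/[neg ctrl − pos ctrl] × 100; hit if <35.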

[2] = target: T2, scanMAX Kinase assay panel (Homo sapiens, UniProt P24941); settings: CDK2; 1 uM; read-out: Percent Control (%)
T2 construct: purchased DiscoverX
Outline: as §1

[3] = target: T3, scanMAX Kinase assay panel (Homo sapiens, UniProt P36894); settings: BMPR1A; 1 uM; read-out: Percent Control (%)
T3 construct: purchased DiscoverX
Outline: as §1

[4] = target: T4, scanMAX Kinase assay panel (Homo sapiens, UniProt P49760); settings: CLK2; 1 uM; read-out: Percent Control (%)
T4 construct: purchased DiscoverX
Outline: as §1

[5] = target: T5, scanMAX Kinase assay panel (Homo sapiens, UniProt Q05397); settings: FAK; 1 uM; read-out: Percent Control (%)
T5 construct: purchased DiscoverX
Outline: as §1

[6] = target: T6, scanMAX Kinase assay panel (Homo sapiens, UniProt Q15569); settings: TESK1; 1 uM; read-out: Percent Control (%)
T6 construct: purchased DiscoverX
Outline: as §1

[7] = target: T7, scanMAX Kinase assay panel (Homo sapiens, UniProt Q16288); settings: TRKC; 1 uM; read-out: Percent Control (%)
T7 construct: purchased DiscoverX
Outline: as §1

[8] = target: T8, scanMAX Kinase assay panel (Homo sapiens, UniProt Q7L7X3); settings: TAOK1; 1 uM; read-out: Percent Control (%)
T8 construct: purchased DiscoverX
T8 sequence (Q7L7X3 1-1001): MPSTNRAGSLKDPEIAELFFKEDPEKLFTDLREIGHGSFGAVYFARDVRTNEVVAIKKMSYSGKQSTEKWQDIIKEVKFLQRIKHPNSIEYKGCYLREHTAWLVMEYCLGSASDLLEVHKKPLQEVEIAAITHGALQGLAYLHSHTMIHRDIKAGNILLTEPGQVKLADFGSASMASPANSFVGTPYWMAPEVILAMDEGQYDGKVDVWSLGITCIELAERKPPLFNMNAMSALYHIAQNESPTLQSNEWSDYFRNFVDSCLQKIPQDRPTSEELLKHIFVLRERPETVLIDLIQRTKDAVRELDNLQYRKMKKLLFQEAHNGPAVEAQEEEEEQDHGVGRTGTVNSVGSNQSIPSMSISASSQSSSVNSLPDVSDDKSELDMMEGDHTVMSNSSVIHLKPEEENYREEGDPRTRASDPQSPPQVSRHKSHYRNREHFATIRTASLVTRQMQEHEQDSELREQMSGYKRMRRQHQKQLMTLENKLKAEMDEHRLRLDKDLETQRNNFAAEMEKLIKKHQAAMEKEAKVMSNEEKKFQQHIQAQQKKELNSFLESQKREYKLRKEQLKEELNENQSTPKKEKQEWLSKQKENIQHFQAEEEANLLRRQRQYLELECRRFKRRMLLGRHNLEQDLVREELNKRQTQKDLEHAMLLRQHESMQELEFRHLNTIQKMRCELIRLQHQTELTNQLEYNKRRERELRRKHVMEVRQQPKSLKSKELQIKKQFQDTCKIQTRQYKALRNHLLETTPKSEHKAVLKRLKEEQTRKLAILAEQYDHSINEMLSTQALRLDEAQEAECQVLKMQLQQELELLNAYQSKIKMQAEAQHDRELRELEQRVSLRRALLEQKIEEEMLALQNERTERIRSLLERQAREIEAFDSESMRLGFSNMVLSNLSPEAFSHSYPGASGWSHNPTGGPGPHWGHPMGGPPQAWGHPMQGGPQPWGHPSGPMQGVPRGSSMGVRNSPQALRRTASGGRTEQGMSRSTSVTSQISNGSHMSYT
Outline: as §1

[9] = target: T9, scanMAX Kinase assay panel (Homo sapiens, UniProt Q8NI60); settings: ADCK3; 1 uM; read-out: Percent Control (%)
T9 construct: purchased DiscoverX
Outline: as §1

[10] = target: T10, scanMAX Kinase assay panel (Homo sapiens, UniProt Q9NY57); settings: YANK2; 1 uM; read-out: Percent Control (%)
T10 construct: purchased DiscoverX
Outline: as §1

[11] = target: T11, scanMAX Kinase assay panel (Homo sapiens, UniProt Q9UKI8); settings: TLK1; 1 uM; read-out: Percent Control (%)
T11 construct: purchased DiscoverX
T11 sequence (Q9UKI8 1-766): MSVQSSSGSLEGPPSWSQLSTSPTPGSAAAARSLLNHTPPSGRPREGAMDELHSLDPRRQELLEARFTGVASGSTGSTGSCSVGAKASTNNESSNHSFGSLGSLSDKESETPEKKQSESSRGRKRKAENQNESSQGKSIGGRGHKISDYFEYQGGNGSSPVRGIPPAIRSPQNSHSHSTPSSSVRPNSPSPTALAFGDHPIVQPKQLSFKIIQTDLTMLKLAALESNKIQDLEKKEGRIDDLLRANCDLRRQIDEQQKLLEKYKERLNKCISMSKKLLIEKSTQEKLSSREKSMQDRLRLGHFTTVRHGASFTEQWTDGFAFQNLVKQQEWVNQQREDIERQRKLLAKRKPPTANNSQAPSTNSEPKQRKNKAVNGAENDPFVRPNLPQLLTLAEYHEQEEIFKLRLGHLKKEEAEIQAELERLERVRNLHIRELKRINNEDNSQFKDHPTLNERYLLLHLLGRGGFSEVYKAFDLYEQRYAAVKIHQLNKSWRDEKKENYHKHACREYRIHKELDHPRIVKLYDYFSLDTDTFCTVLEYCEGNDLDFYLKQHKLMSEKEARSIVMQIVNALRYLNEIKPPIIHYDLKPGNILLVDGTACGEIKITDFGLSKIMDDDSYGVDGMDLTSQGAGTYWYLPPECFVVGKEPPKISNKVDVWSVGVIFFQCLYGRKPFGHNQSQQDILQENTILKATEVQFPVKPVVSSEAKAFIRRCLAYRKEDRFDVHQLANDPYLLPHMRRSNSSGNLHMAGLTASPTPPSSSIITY
Outline: as §1

T7 sequence (Q16288 32-839): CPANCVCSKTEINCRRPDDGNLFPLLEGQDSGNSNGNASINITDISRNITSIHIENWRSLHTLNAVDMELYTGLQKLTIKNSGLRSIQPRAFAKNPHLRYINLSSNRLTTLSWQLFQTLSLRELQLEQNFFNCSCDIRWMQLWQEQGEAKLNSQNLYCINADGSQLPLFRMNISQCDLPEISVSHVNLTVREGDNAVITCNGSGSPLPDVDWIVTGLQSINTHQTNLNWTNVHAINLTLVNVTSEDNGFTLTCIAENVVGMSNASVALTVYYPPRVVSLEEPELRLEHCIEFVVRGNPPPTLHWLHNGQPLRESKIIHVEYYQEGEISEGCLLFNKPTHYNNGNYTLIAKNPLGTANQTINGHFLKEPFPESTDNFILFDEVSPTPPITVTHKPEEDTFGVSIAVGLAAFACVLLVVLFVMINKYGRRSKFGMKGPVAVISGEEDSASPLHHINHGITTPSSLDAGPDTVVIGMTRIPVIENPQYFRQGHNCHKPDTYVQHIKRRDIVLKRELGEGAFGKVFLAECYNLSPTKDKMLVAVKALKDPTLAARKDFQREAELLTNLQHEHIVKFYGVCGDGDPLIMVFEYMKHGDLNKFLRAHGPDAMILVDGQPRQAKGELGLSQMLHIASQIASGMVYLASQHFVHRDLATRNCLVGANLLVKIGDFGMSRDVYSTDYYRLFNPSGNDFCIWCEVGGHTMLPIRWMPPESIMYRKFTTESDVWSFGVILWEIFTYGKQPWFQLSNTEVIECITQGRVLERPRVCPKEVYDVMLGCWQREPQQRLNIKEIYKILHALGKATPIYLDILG
T6 sequence (Q15569 whole entry): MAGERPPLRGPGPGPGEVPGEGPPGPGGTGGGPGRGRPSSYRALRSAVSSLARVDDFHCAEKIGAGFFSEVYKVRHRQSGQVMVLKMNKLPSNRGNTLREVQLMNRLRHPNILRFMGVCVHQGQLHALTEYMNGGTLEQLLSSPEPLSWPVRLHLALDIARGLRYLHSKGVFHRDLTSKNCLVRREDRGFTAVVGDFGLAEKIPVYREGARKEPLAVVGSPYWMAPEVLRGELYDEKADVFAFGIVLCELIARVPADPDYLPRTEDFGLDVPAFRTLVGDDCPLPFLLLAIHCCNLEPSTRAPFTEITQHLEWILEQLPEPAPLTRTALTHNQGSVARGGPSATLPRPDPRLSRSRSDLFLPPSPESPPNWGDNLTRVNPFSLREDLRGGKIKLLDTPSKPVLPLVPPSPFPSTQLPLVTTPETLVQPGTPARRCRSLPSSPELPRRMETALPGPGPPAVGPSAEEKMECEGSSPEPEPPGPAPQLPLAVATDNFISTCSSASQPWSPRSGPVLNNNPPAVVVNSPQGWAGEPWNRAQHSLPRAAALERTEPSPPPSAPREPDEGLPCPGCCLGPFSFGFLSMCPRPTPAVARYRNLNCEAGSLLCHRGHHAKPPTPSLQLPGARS
T9 sequence (Q8NI60 163-647): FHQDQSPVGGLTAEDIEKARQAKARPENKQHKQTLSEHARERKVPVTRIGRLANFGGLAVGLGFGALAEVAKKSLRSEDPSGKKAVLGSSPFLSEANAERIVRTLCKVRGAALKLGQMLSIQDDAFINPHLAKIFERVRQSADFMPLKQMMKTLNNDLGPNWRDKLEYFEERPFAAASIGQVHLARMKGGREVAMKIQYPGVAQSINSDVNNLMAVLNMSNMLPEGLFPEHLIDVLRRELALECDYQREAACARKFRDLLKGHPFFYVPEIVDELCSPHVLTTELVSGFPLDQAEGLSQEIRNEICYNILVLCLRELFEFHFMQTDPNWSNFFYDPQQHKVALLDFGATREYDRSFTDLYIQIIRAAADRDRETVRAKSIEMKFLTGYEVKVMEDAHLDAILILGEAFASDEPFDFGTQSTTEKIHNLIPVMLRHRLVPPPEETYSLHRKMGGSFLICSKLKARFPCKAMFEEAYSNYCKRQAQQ
T4 sequence (P49760 whole entry): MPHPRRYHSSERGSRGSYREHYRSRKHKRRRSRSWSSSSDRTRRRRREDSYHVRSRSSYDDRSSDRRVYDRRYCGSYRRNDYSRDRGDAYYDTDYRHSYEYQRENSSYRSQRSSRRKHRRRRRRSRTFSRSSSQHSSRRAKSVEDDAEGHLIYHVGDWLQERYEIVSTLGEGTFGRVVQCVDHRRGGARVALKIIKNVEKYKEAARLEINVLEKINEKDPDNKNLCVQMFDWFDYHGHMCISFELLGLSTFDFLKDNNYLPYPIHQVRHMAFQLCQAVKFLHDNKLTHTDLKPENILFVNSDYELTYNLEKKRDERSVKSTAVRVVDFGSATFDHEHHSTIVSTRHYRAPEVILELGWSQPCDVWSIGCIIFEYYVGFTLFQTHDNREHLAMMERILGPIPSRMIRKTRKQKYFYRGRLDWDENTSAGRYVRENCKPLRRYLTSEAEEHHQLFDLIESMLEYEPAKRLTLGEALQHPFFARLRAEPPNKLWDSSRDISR
T3 sequence (P36894 24-532): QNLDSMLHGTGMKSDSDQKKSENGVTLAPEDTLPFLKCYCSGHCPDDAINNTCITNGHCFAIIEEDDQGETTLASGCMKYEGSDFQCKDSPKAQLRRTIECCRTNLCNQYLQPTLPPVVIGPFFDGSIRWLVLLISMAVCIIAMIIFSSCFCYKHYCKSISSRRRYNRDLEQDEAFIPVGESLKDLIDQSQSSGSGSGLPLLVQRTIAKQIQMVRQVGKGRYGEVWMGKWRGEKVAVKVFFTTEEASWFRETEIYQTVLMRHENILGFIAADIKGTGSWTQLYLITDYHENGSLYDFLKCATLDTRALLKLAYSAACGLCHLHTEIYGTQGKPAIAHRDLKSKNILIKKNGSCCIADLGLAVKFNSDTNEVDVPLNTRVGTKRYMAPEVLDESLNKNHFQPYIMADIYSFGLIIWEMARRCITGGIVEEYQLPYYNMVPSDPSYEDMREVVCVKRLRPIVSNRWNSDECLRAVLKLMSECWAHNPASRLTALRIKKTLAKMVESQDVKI
T5 sequence (Q05397 whole entry): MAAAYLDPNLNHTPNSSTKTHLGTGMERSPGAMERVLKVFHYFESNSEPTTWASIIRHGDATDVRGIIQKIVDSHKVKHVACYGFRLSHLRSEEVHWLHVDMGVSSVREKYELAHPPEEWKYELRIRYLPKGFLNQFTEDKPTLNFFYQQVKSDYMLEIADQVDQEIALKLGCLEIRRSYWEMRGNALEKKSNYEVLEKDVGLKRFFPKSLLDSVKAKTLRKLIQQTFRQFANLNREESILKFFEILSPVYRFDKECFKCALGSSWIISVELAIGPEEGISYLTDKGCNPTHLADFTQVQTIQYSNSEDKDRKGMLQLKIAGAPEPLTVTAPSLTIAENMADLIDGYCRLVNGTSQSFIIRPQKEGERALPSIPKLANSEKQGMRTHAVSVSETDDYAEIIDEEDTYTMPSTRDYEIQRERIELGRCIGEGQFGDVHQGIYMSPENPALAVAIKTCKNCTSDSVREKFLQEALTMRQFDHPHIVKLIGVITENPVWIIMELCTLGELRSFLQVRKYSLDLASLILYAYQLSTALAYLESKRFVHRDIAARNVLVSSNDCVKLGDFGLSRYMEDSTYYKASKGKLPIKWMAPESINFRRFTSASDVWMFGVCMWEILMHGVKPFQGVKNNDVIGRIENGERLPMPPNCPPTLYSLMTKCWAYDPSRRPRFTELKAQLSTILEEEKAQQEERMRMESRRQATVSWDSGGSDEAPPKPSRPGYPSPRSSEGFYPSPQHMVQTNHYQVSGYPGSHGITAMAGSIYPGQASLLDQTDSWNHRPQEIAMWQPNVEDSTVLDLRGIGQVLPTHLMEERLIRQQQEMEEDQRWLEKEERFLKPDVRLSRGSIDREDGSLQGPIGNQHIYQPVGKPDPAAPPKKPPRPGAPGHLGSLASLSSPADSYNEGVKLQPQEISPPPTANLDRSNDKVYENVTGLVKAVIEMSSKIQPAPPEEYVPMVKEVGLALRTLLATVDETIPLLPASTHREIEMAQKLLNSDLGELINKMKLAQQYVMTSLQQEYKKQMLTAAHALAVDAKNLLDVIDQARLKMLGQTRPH
T10 sequence (Q9NY57 whole entry): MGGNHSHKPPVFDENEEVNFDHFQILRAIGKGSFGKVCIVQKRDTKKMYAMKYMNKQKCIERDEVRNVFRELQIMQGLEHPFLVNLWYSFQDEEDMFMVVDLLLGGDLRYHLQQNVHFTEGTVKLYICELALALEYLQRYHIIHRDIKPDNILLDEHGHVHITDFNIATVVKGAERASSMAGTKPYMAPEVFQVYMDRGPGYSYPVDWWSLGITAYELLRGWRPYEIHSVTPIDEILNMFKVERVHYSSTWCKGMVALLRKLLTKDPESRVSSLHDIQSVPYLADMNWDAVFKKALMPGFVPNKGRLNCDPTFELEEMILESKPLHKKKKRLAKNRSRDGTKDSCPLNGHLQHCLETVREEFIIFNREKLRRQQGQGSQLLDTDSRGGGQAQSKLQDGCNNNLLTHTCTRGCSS

SMILES | remaining binding at 1 µM [1] | remaining binding at 1 µM [2] | remaining binding at 1 µM [3] | remaining binding at 1 µM [4] | remaining binding at 1 µM [5] | remaining binding at 1 µM [6] | remaining binding at 1 µM [7] | remaining binding at 1 µM [8] | remaining binding at 1 µM [9] | remaining binding at 1 µM [10] | remaining binding at 1 µM [11]
Cc1ccc(NC(=O)C2(C(=O)Nc3ccc(F)cc3)CC2)cc1C#Cc1cnc2c(Nc3cnn(C(C)C)c3)cccn12 [Example 78] | 0% | 95% | 94% | 100% | 96% | 100% | 96% | 89% | 100% | 100% | 96%
Cc1cn(-c2cc(NC(=O)c3ccc(C)c(C#Cc4cnc5c(Nc6cnn(C)c6)cccn45)c3)cc(C(F)(F)F)c2)cn1 [Example 12, 4-methyl-N-(3-(4-methyl-1H-imidazol-1-yl)-5-(trifluoromethyl)phenyl)-3-((8-((1-methyl-1H-pyrazol-4-yl)amino)imidazo[1,2-a]pyridin-3-yl)ethynyl)benzamide] | 17% | 85% | 60% | 91% | 10% | 81% | 3% | 100% | 93% | 99% | 75%
Cc1ccc(C(=O)Nc2ccc(CN3CCN(C)CC3)c(C(F)(F)F)c2)cc1C#Cc1cnc2c(Nc3cnn(C)c3)cccn12 [Example 1, 4-methyl-3-((8-((1-methyl-1H-pyrazol-4-yl)amino)imidazo[1,2-a]pyridin-3-yl)ethynyl)-N-(4-((4-methylpiperazin-1-yl)methyl)-3-(trifluoromethyl)phenyl)benzamide] | 0% | 29% | 77% | 64% | 39% | 26% | 0% | 51% | 100% | 100% | 93%
